{
  "source": "patent US8865659B2",
  "about": "“Compositions for prevention or treatment of Hepatitis C virus containing ginsenoside Rg3 as an active ingredient” (priority 2012, dated 2014)",
  "system": "cleaved PARP",
  "experiment": "Western blotting against cleaved PARP (apoptosis) in JFH-1 infected Huh 7.5.1 cells",
  "format": "cell-based",
  "description": "The experiment was carried out as follow. First, 200,000 Huh 7.5.1 cells were placed in a 60×15 mm cell culture dish. Next day, Japanese Fulminant Hepatitis-1 virus (JFH-1) stock vial which was stored in −70° C. refrigerator was taken out and thawed out in a container filled with ice-water. The culture medium was collected from the cultured 60×15 mm cell culture dish, washed with 1×PBS and collected, again. 1.5 ml of JFH-1 virus solution per 60×15 mm cell culture dish each was added. The dish was shaken to cover the surface sufficiently. The dish was laid in a 5% CO2 incubator at 37° C. for 6 hours and after that, the supernatant was draw out. 1×PBS was spread on the cell surface as slow as possible and after one time washing, cells were collected. 5 ml of cell culture media was added to control and JFH-1 treatments groups. At the last step of virus-infection, 5 ml CM and each […] of ginsenosides which was set to 50 mM concentration were added to the cell culture media. After that, the cell culture media was laid in a 5% CO2 incubator at 37° C. After 72 hours, the following steps were carried out.\nAs described in the above Example 3, the Huh 7.5.1 cells were treated with each 100 μM of seven ginsenosides (Ro, Re, Rg1, Rg2, Rg3, Rh1, Rh2). After 72 hours, a western blotting analysis was carried out for analyzing virus suppression effect against HCV CORE and cleaved PARP. […]",
  "data": [
    {"molecule": "CC(C)=CCC[C@](C)(O)[C@H]1CC[C@]2(C)[C@@H]1[C@H](O)C[C@@H]1[C@@]3(C)CC[C@H](O[C@@H]4O[C@H](CO)[C@@H](O)[C@H](O)[C@H]4O[C@@H]4O[C@H](CO)[C@@H](O)[C@H](O)[C@H]4O)C(C)(C)[C@@H]3CC[C@]12C", "note": "[ginsenoside Rg3]", "values": [
      {"measurement": "apoptosis of the cells (cleaved PARP), dose dependence", "setting": "10 μM, 25 μM, 50 μM and 100 μM", "result": "dose-dependent manner"},
      {"measurement": "cleaved PARP", "setting": "100 μM, 72 hours", "result": "decreased"}
    ]}
  ]
}
